Laboratory results: the supplement of paper PMC10307832

Key:
Assay in all cases: relative viability (nuclei count vs DMSO), 5 days (fraction); higher = more cells survive
XMD8-85 + Lapatinib = compound: CN1CCN(CC1)C2=CC(=C(C=C2)NC3=NC=C4C(=N3)N(C5=CC=CC=C5C(=O)N4C)C)OC [XMD8-85] + CS(=O)(=O)CCNCc1ccc(-c2ccc3ncnc(Nc4ccc(OCc5cccc(F)c5)c(Cl)c4)c3c2)o1 [Lapatinib] (partner 2 µM)
Summary of the method: (§1)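 Relative viability was taken as the ratio of nuclei in treated wells to nuclei in vehicle wells. Lung cancer cell lines in 1536-well plates received compounds by pin tool one day after seeding, either one drug alone or a fixed anchor-drug dose plus five library-drug doses (not always all listed) in √10 steps. Nuclei were counted on 4× images after 5 days of treatment, and values are medians of duplicate plates.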

4EGI-1 + Tozasertib = compound: O=C(O)C(Cc1ccccc1[N+](=O)[O-])=NNc1nc(-c2ccc(Cl)c(Cl)c2)cs1 (mixture of isomers) [4EGI-1] + Cc1cc(Nc2cc(N3CCN(C)CC3)nc(Sc3ccc(NC(=O)C4CC4)cc3)n2)n[nH]1 [Tozasertib] (partner 0.1 µM)
Summary of the method: as §1

4EGI-1 + Alpelisib = compound: O=C(O)C(Cc1ccccc1[N+](=O)[O-])=NNc1nc(-c2ccc(Cl)c(Cl)c2)cs1 (mixture of isomers) [4EGI-1] + Cc1nc(NC(=O)N2CCC[C@H]2C(N)=O)sc1-c1ccnc(C(C)(C)C(F)(F)F)c1 [Alpelisib] (partner 2 µM)
Summary of the method: as §1

4EGI-1 + Olaparib = compound: O=C(O)C(Cc1ccccc1[N+](=O)[O-])=NNc1nc(-c2ccc(Cl)c(Cl)c2)cs1 (mixture of isomers) [4EGI-1] + O=C(c1cc(Cc2n[nH]c(=O)c3ccccc23)ccc1F)N1CCN(C(=O)C2CC2)CC1 [Olaparib] (partner 8 µM)
Summary of the method: as §1

Cell Line | relative viability (XMD8-85 + Lapatinib; first compound 0.08 µM) | relative viability (XMD8-85 + Lapatinib; first compound 0.253 µM) | relative viability (XMD8-85 + Lapatinib; first compound 0.8 µM) | relative viability (XMD8-85 + Lapatinib; first compound 2.53 µM) | relative viability (XMD8-85 + Lapatinib; first compound 8 µM) | relative viability (4EGI-1 + Tozasertib; first compound 0.5 µM) | relative viability (4EGI-1 + Tozasertib; first compound 1.581 µM) | relative viability (4EGI-1 + Tozasertib; first compound 5 µM) | relative viability (4EGI-1 + Tozasertib; first compound 15.81 µM) | relative viability (4EGI-1 + Tozasertib; first compound 50 µM) | relative viability (4EGI-1 + Alpelisib; first compound 0.5 µM) | relative viability (4EGI-1 + Alpelisib; first compound 1.581 µM) | relative viability (4EGI-1 + Alpelisib; first compound 5 µM) | relative viability (4EGI-1 + Alpelisib; first compound 15.81 µM) | relative viability (4EGI-1 + Alpelisib; first compound 50 µM) | relative viability (4EGI-1 + Olaparib; first compound 0.5 µM) | relative viability (4EGI-1 + Olaparib; first compound 1.581 µM) | relative viability (4EGI-1 + Olaparib; first compound 5 µM) | relative viability (4EGI-1 + Olaparib; first compound 15.81 µM) | relative viability (4EGI-1 + Olaparib; first compound 50 µM)
NCI-H2085 | 0.791 | 0.778 | 0.815 | 0.719 | 0.566 | 0.835 | 0.859 | 0.836 | 0.724 | 0.775 | 1.19 | 1 | 1.03 | 0.831 | 0.626 | 0.764 | 0.72 | 0.739 | 0.726 | 0.374
SW 900 | – | – | – | – | – | 0.688 | – | 0.551 | 0.459 | 0.291 | – | – | – | – | – | 0.923 | 0.812 | 0.936 | 0.552 | 0.23
NCI-H520 | 0.825 | 0.749 | 1.03 | 0.906 | 0.756 | 0.47 | 0.496 | 0.499 | 0.385 | 0.371 | 0.918 | 0.754 | 1.02 | 0.866 | 0.543 | 0.375 | 0.329 | 0.458 | 0.265 | 0.13
NCI-H358 | 0.438 | 0.52 | 0.455 | 0.486 | 0.405 | 0.102 | 0.117 | 0.102 | 0.102 | 0.0781 | 0.966 | 0.817 | 0.96 | 0.653 | 0.175 | 0.599 | 0.58 | 0.531 | 0.336 | 0.118
NCI-H1650 | 0.729 | 0.819 | 0.92 | 0.671 | 0.281 | 0.474 | – | 0.413 | 0.327 | 0.267 | – | – | – | – | – | 0.757 | – | 0.803 | 0.537 | 0.214
RERF-LC-KJ | 0.871 | 0.795 | 0.905 | 0.989 | 0.769 | 0.547 | – | 0.425 | 0.363 | 0.216 | 0.924 | – | 0.728 | 0.677 | 0.659 | 0.97 | – | 0.902 | 0.489 | 0.254
LOU-NH91 | – | 0.736 | 0.76 | 0.761 | 0.57 | 0.671 | – | 0.666 | 0.432 | 0.69 | 0.814 | – | 0.726 | 0.466 | 0.538 | 0.95 | – | 0.911 | 0.738 | 0.564
Calu-6 | 1.02 | 1.09 | 1.11 | 1.03 | 0.899 | – | – | – | – | – | 1.08 | 0.493 | 1.21 | 0.933 | 0.375 | 0.559 | 0.5 | 0.627 | 0.464 | 0.332
HCC-15 | 0.851 | 0.879 | 0.863 | 0.948 | 0.747 | 0.331 | 0.377 | 0.5 | 0.308 | 0.155 | 0.923 | 0.886 | 0.968 | 0.809 | 0.519 | 0.716 | 0.691 | 0.634 | 0.676 | 0.517
NCI-H23 | 0.949 | 1.05 | 1.09 | 1.08 | 0.969 | 0.393 | – | 0.471 | 0.382 | 0.214 | 0.905 | – | 0.915 | 0.794 | 0.611 | 0.335 | – | 0.278 | 0.245 | 0.161
HCC-78 | 0.84 | – | 0.751 | 0.565 | 0.223 | 0.538 | – | 0.336 | 1.56 | 0.289 | 0.439 | 0.315 | 0.319 | 0.32 | 0.218 | 1.05 | – | 0.881 | 0.816 | 1.13
NCI-H1299 | 1 | 0.985 | 0.977 | 0.974 | 0.67 | – | – | – | – | – | 1.03 | 1.08 | 0.989 | 0.955 | 1.04 | 1.01 | 0.95 | 0.942 | 0.863 | 0.317
LC-2-ad | 1.03 | 0.976 | 0.984 | 1 | 0.702 | 0.415 | – | 0.483 | 0.347 | 0.232 | 0.865 | 0.758 | 0.858 | 0.822 | 0.137 | 0.631 | 0.617 | 0.645 | 0.523 | 0.309
A549 | 1.08 | 0.974 | 1.06 | 1.03 | 0.869 | – | – | – | – | – | 0.801 | 0.479 | 0.984 | 0.611 | 0.273 | 0.495 | – | 0.306 | 0.355 | 0.301
NCI-H2342 | – | – | – | – | – | 0.549 | 0.598 | 0.655 | 0.544 | 0.511 | – | – | – | – | – | 0.472 | 0.429 | 0.43 | 0.569 | 0.51
NCI-H1563 | 1.04 | 0.87 | 1.01 | 0.822 | 0.7 | – | – | – | – | – | 0.998 | 0.884 | 0.983 | 0.906 | 0.697 | – | – | – | – | –
IA-LM | 0.847 | 0.59 | 0.611 | 0.455 | 0.16 | – | – | – | – | – | 0.916 | 0.647 | 0.586 | 0.149 | 0.0833 | 0.767 | 0.771 | 0.644 | 0.154 | 0.0834
NCI-H1623 | – | – | – | – | – | 0.481 | 0.421 | 0.535 | 0.36 | 0.33 | – | – | – | – | – | – | – | – | – | –
NCI-H441 | – | – | – | – | – | 0.688 | 0.538 | 0.574 | 0.541 | 0.284 | 0.787 | 0.758 | 0.656 | 0.743 | 0.301 | 0.654 | 0.425 | 0.597 | 0.315 | 0.192
NCI-H522 | – | – | – | – | – | 0.558 | 0.491 | 0.595 | 0.558 | 0.457 | – | – | – | – | – | 0.694 | 0.776 | 0.617 | 0.574 | 0.471
ChaGo-K-1 | – | – | – | – | – | 0.209 | 0.208 | 0.212 | 0.209 | 0.208 | – | – | – | – | – | 0.386 | 0.406 | 0.407 | 0.34 | 0.217
